Assay results as given in the NIST ThermoML archive (doi:10.1021/acs.jced.7b00159).

Conditions: Liquid, Pendant drop shape

CCCCCCCCCC [decane] + O=C=O
interfacial tension [mN/m]
Conditions | 323.15 K | 353.15 K
900 kPa | 18.82 | –
1200 kPa | – | 16.45
2100 kPa | 16.35 | 15.25
2990 kPa | 14.77 | –
3020 kPa | – | 14.07
4100 kPa | 12.56 | 12.52
5100 kPa | – | 11.28
6100 kPa | 8.43 | 9.86
7100 kPa | 6.85 | –
7110 kPa | – | 8.6
8100 kPa | 4.89 | 7.85
9100 kPa | – | 5.91
10100 kPa | – | 4.65

CCCCCCCCCCCC [dodecane] + O=C=O
interfacial tension [mN/m]
Conditions | 323.15 K | 353.15 K
1100 kPa | 19.27 | 16.94
2100 kPa | 17.29 | 16.02
3100 kPa | – | 14.66
3600 kPa | 14.47 | –
4100 kPa | 13.55 | 13.4
5100 kPa | – | 11.99
6100 kPa | 9.51 | 10.69
7100 kPa | 7.68 | 9.44
8100 kPa | 5.57 | 8.32
9100 kPa | – | 6.96
10100 kPa | – | 5.88
11100 kPa | – | 4.8

CCCCCCCCCCCCCCCCCCCC [eicosane] + O=C=O
353.15 K
Conditions | interfacial tension [mN/m]
1000 kPa | 20.35
2000 kPa | 18.99
4000 kPa | 16.13
6000 kPa | 13.37
8000 kPa | 10.34
10000 kPa | 7.85
12000 kPa | 5.55
14000 kPa | 3.71
16000 kPa | 2.38

CCCCCCCCCCCCCCCCC [heptadecane] + O=C=O
interfacial tension [mN/m]
Conditions | 323.15 K | 353.15 K
1100 kPa | – | 18.47
1200 kPa | 20.95 | –
2100 kPa | – | 17.15
2600 kPa | 18.3 | –
3300 kPa | 16.99 | 15.48
4100 kPa | 15.49 | 14.62
5100 kPa | 13.95 | –
5200 kPa | – | 13.38
6100 kPa | 11.78 | –
6720 kPa | – | 11.71
7100 kPa | – | 11.26
7300 kPa | 9.69 | –
8120 kPa | 8.52 | –
8150 kPa | – | 10.09
9300 kPa | – | 9.14
10100 kPa | 5.08 | –
10600 kPa | – | 7.78
12600 kPa | – | 5.78
14100 kPa | – | 4.3
15100 kPa | – | 3.57
16200 kPa | – | 2.81

CCCCCCCCCCCCCCCC [hexadecane] + O=C=O
Conditions | interfacial tension [mN/m]
323.15 K, 1030 kPa | 21.5
323.15 K, 2050 kPa | 19.61
323.15 K, 2960 kPa | 17.95
323.15 K, 4010 kPa | 15.94
323.15 K, 5020 kPa | 14.12
323.15 K, 5960 kPa | 12.43
323.15 K, 7000 kPa | 10.52
323.15 K, 8020 kPa | 8.71
323.15 K, 8960 kPa | 6.98
323.15 K, 9040 kPa | 7.5
323.15 K, 10020 kPa | 5.02
353.15 K, 1200 kPa | 18.68
353.15 K, 2100 kPa | 17.48
353.15 K, 3200 kPa | 16.05
353.15 K, 4040 kPa | 14.99
353.15 K, 5120 kPa | 13.67
353.15 K, 6110 kPa | 12.5
353.15 K, 7090 kPa | 11.37
353.15 K, 8090 kPa | 10.25
353.15 K, 8990 kPa | 9.28
353.15 K, 10050 kPa | 8.1
353.15 K, 11120 kPa | 7.11
353.15 K, 12010 kPa | 6.12

CCCCCCCCCCCCCCCCCCC [nonadecane] + O=C=O
interfacial tension [mN/m]
Conditions | 323.15 K | 353.15 K
1100 kPa | – | 19.52
2060 kPa | – | 18.23
2400 kPa | 20.57 | –
3100 kPa | – | 16.88
3200 kPa | 18.91 | –
4140 kPa | – | 15.58
4200 kPa | 17.25 | –
5050 kPa | 15.27 | –
5140 kPa | – | 14.35
6060 kPa | – | 13.27
6150 kPa | 12.93 | –
7100 kPa | 11.35 | –
7120 kPa | – | 12.06
8050 kPa | – | 11.03
8200 kPa | 9.61 | –
9200 kPa | 7.78 | 9.76
10000 kPa | 6.39 | –
10020 kPa | – | 8.94
11100 kPa | – | 7.87
12000 kPa | – | 7
13070 kPa | – | 5.97
14040 kPa | – | 5.08

CCCCCCCCCCCCCCCCCC [octadecane] + O=C=O
interfacial tension [mN/m]
Conditions | 323.15 K | 353.15 K
400 kPa | – | 20.05
410 kPa | 23.35 | –
1100 kPa | – | 19.16
1300 kPa | 21.23 | –
2000 kPa | 18.53 | –
2200 kPa | – | 17.73
2670 kPa | 17.13 | –
3200 kPa | 15.63 | –
3300 kPa | – | 16.22
4000 kPa | 14.12 | –
4180 kPa | – | 15.13
5100 kPa | 11.94 | –
5300 kPa | – | 13.86
6150 kPa | – | 12.92
6250 kPa | 9.84 | –
7000 kPa | 8.65 | –
7200 kPa | – | 11.8
8100 kPa | – | 10.68
8150 kPa | 5.07 | –
9100 kPa | 3.15 | –
9300 kPa | – | 9.66
10100 kPa | 1.83 | 8.87
11100 kPa | – | 7.66
12100 kPa | – | 6.63
13000 kPa | – | 5.74
14000 kPa | – | 4.91
15000 kPa | – | 4.05
16300 kPa | – | 3.08
17400 kPa | – | 2.49

CCCCCCCCCCCCCCC [pentadecane] + O=C=O
interfacial tension [mN/m]
Conditions | 323.15 K | 353.15 K
1050 kPa | 21.31 | –
1500 kPa | – | 18.19
2100 kPa | – | 17.27
2130 kPa | 19.32 | –
3100 kPa | 17.53 | 16.23
4050 kPa | 15.63 | –
4200 kPa | – | 14.66
5130 kPa | 13.49 | –
5400 kPa | – | 13.29
6100 kPa | 11.98 | 12.36
7100 kPa | 10.16 | –
7900 kPa | – | 10.2
8100 kPa | 8.46 | –
8900 kPa | – | 8.9
9000 kPa | 6.66 | –
9600 kPa | 5.32 | –
10000 kPa | – | 7.87
10100 kPa | 4.72 | –
11100 kPa | – | 6.78
12100 kPa | – | 5.82
13100 kPa | – | 4.66
14100 kPa | – | 3.75
15100 kPa | – | 3.06

CCCCCCCCCCCCCC [tetradecane] + O=C=O
interfacial tension [mN/m]
Conditions | 323.15 K | 353.15 K
1050 kPa | 20.79 | –
1200 kPa | – | 18.19
2100 kPa | – | 17.01
2110 kPa | 18.89 | –
3050 kPa | 17.05 | –
3200 kPa | – | 15.62
3950 kPa | 15.41 | –
4040 kPa | – | 14.48
5020 kPa | 13.51 | –
5120 kPa | – | 13.21
5960 kPa | 11.59 | –
6110 kPa | – | 12.2
7030 kPa | 9.79 | –
7090 kPa | – | 10.94
8000 kPa | 8.27 | –
8090 kPa | – | 9.9
8940 kPa | 6.5 | –
9020 kPa | 6.35 | –
10050 kPa | 3.98 | 7.61
11120 kPa | – | 6.5
12010 kPa | – | 5.5

CCCCCCCCCCCCC [tridecane] + O=C=O
interfacial tension [mN/m]
Conditions | 323.15 K | 353.15 K
1100 kPa | 20 | –
1500 kPa | – | 17.72
2100 kPa | 18.27 | –
2600 kPa | – | 16.09
4100 kPa | 14.42 | 14.09
5100 kPa | 12.93 | 12.85
6100 kPa | 11.47 | 12.02
7100 kPa | 9.42 | 10.41
8100 kPa | – | 9.58
8600 kPa | 6.83 | –
9100 kPa | – | 8.18
9600 kPa | 4.91 | –
10100 kPa | – | 7.07
10600 kPa | 2.83 | –
11100 kPa | – | 6.1
12100 kPa | – | 4.84
13100 kPa | – | 3.89
14100 kPa | – | 3.14
15100 kPa | – | 2.21
16100 kPa | – | 1.68
17100 kPa | – | 1.14

CCCCCCCCCCC [undecane] + O=C=O
interfacial tension [mN/m]
Conditions | 323.15 K | 353.15 K
1030 kPa | 19.26 | –
1100 kPa | – | 17.09
2100 kPa | 17.25 | 15.83
3100 kPa | 15.05 | 14.38
4100 kPa | 13.12 | 13.17
5100 kPa | 10.98 | 11.69
6100 kPa | 8.68 | 10.45
7100 kPa | 7.2 | 9.31
8100 kPa | 4.95 | 7.45
9100 kPa | – | 6.45
10100 kPa | – | 5.59
11100 kPa | – | 4.37
12100 kPa | – | 3.39
